The assay addresses T1, human PAH with the R408W mutation (Homo sapiens, UniProt P00439, R408W).
T1 construct: expressed in transfected cells
T1 sequence (P00439 1-452 R408W): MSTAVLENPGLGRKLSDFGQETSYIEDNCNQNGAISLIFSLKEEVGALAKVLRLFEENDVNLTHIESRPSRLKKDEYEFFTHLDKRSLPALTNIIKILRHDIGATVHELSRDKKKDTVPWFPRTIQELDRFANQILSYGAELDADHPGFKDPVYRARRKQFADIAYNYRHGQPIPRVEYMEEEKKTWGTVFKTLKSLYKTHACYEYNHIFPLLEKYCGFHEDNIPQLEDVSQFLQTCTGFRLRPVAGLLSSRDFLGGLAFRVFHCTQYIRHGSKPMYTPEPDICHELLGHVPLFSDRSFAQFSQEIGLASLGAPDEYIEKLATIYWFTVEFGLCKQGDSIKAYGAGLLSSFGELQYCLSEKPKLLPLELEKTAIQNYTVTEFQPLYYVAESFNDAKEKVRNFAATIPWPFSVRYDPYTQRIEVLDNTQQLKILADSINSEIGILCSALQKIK
Description: Cell Based Phenylalanine Flux Assay. The arrangement: scale not given here. The settings on record: A375 cells expressing human R408W PAH, 13C-Tyrosine by LC-MS, average where tested multiple times.

The mark [1] stands for this setting: 24 hrs compound incubation, read-out: AC50.
[2] abbreviates: 24 hrs with compound, read-out: AC50.

Read-outs that look alike come from different tables or passages of the source.

With `O=C(CCc1nccs1)N1CCc2[nH]cnc2[C@H]1c1nccs1` [Example 2139, (S)-3-(thiazol-2-yl)-1-(4-(thiazol-2-yl)-6,7-dihydro-1H-imidazo[4,5-c]pyridin-5(4H)-yl)propan-1-one], the AC50 under setting [1] is more than 5 µM.

With `C[C@@H](O)c1nc(C(F)F)c(C(=O)N2CCc3[nH]cnc3[C@@H]2c2nc3ccccc3s2)o1` [Example 2092, ((R)-4-(benzo[d]thiazol-2-yl)-6,7-dihydro-1H-imidazo[4,5-c]pyridin-5(4H)-yl)(4-(difluoromethyl)-2-((R)-1-hydroxyethyl)oxazol-5-yl)methanone], under setting [1], the AC50 fell in the range of 0.5 to 1 µM.

As for `O=C(c1nccs1)N1CCc2[nH]cnc2C1c1nc2cccc(F)c2[nH]1` (stereo not shown), the AC50 under setting [2] was 1 to 5 µM.

`O=C(CCC1CC1)N1CCc2[nH]cnc2[C@@H]1c1nc2ccc(Br)cc2[nH]1` [Example 934, (R)-1-(4-(6-bromo-1H-benzo[d]imidazol-2-yl)-6,7-dihydro-1H-imidazo[4,5-c]pyridin-5(4H)-yl)-3-cyclopropylpropan-1-one]: under setting [1], the AC50 was 1 to 5 µM.

As for `Cc1nc(CN2CCOCC2)oc1C(=O)N1CCCc2[nH]cnc2C1c1nc2ccccc2s1` (stereo not shown), the AC50 under setting [2] is more than 5 µM.

On to `CC(C)(O)c1cc(C(=O)N2CCc3[nH]cnc3C2c2nc3c(F)cccc3s2)[nH]n1` (stereo not shown), for which the AC50 under setting [2] is 1 to 5 µM.

In the case of `Cc1nnc(CC(=O)N2CCc3[nH]cnc3C2c2nc3c(F)cccc3s2)s1` (stereo not shown), the AC50 under setting [2] lay within 1 to 5 µM.

Consider `O=C(c1oc(-c2ccccn2)nc1C(F)(F)F)N1CCc2[nH]cnc2[C@@H]1c1nc2c(F)cccc2s1` [Example 1612, (R)-(4-(4-fluorobenzo[d]thiazol-2-yl)-6,7-dihydro-1H-imidazo[4,5-c]pyridin-5(4H)-yl)(2-(pyridin-2-yl)-4-(trifluoromethyl)oxazol-5-yl)methanone], for which the AC50 under setting [1] is less than 0.5 µM.

On to `O=C(c1ccnn1CC(F)(F)F)N1CCc2[nH]cnc2[C@@H]1c1nc2c(F)cccc2s1` [Example 1738, (R)-(4-(4-fluorobenzo[d]thiazol-2-yl)-6,7-dihydro-1H-imidazo[4,5-c]pyridin-5(4H)-yl)(1-(2,2,2-trifluoroethyl)-1H-pyrazol-5-yl)methanone], for which the concentration at half-maximal activity (AC50) under setting [1] is 1 to 5 µM.

In the case of `O=C(c1cnn(C2CC2)c1C(F)F)N1CCc2[nH]cnc2[C@@H]1c1nc2c(F)cccc2s1` [Example 2000, (R)-(1-cyclopropyl-5-(difluoromethyl)-1H-pyrazol-4-yl)(4-(4-fluorobenzo[d]thiazol-2-yl)-6,7-dihydro-1H-imidazo[4,5-c]pyridin-5(4H)-yl)methanone], under setting [1], the AC50 fell in the range of 1 to 5 µM.

With `CC(C)(C)CCC(=O)N1CCc2[nH]cnc2C1c1nc2cc(F)ccc2s1` (stereo not shown), the AC50 under setting [2] is 1 to 5 µM.

As for `COCc1ncc(C(=O)N2CCc3[nH]cnc3C2c2nc3c(F)cccc3s2)o1` (stereo not shown), the AC50 under setting [2] was 1 to 5 µM.

In the case of `C[C@@H]1CN(C(=O)c2ocnc2C2CC2)[C@H](c2nc3c(F)cccc3s2)c2nc[nH]c21` [Example 1551, (4-cyclopropyloxazol-5-yl)((4S,7R)-4-(4-fluorobenzo[d]thiazol-2-yl)-7-methyl-6,7-dihydro-1H-imidazo[4,5-c]pyridin-5(4H)-yl)methanone], the AC50 under setting [1] was in the range of 0.5 to 1 µM.

For `O=C(c1ncc(Cl)s1)N1CCc2[nH]cnc2C1c1nc2ccc(Cl)cc2[nH]1` (stereo not shown), the AC50 under setting [2] is more than 5 µM.

With `O=C(c1cc2cccnn2c1)N1CCc2[nH]cnc2[C@H]1c1nc2ccccc2[nH]1` [(S)-(4-(1H-benzo[d]imidazol-2-yl)-1,4,6,7-tetrahydro-5H-imidazo[4,5-c]pyridin-5-yl)(pyrrolo[1,2-b]pyridazin-6-yl)methanone], the AC50 under setting [2] was more than 5 µM.

Consider `CN(C)CCn1nccc1C(=O)N1CCc2[nH]cnc2[C@@H]1c1nc2c(F)cccc2s1` [Example 1762, (R)-(1-(2-(dimethylamino)ethyl)-1H-pyrazol-5-yl)(4-(4-fluorobenzo[d]thiazol-2-yl)-6,7-dihydro-1H-imidazo[4,5-c]pyridin-5(4H)-yl)methanone], for which the AC50 under setting [1] lay in the range of 1 to 5 µM.

`O=C(c1nccs1)N1CCc2[nH]cnc2C1c1nc2ccc(Cl)cc2s1` (stereo not shown): the AC50 under setting [2] is more than 5 µM.

With `Cn1nc(C#N)cc1C(=O)N1CCc2[nH]cnc2C1c1nc2c(F)cccc2s1` (stereo not shown), under setting [2], the AC50 is 1 to 5 µM.

With `O=C(c1oc(C2(O)CCC2)nc1C(F)(F)F)N1CCc2[nH]cnc2[C@H]1c1nc2c(F)cccc2s1` [Example 1637, (S)-(4-(4-fluorobenzo[d]thiazol-2-yl)-6,7-dihydro-1H-imidazo[4,5-c]pyridin-5(4H)-yl)(2-(1-hydroxycyclobutyl)-4-(trifluoromethyl)oxazol-5-yl)methanone], the AC50 under setting [1] is less than 0.5 µM.

Regarding `Cn1cc(C(=O)N2CCc3[nH]cnc3[C@@H]2c2nc3c(F)cccc3s2)c(C(F)F)n1` [Example 1842, (R)-(3-(difluoromethyl)-1-methyl-1H-pyrazol-4-yl)(4-(4-fluorobenzo[d]thiazol-2-yl)-6,7-dihydro-1H-imidazo[4,5-c]pyridin-5(4H)-yl)methanone], under setting [1], the AC50 lay in the range of 1 to 5 µM.

For `O=C(c1cnc(-c2ccccn2)s1)N1CCc2[nH]cnc2[C@@H]1c1nc2ccccc2s1` [Example 1206, (R)-(4-(benzo[d]thiazol-2-yl)-6,7-dihydro-1H-imidazo[4,5-c]pyridin-5(4H)-yl)(2-(pyridin-2-yl)thiazol-5-yl)methanone], under setting [1], the AC50 fell in the range of 1 to 5 µM.

In the case of `Cc1cnn(C)c1-c1nnc(C(=O)N2CCc3[nH]cnc3[C@@H]2c2nc3ccccc3s2)o1` [Example 1948, (R)-(4-(benzo[d]thiazol-2-yl)-6,7-dihydro-1H-imidazo[4,5-c]pyridin-5(4H)-yl)(5-(1,4-dimethyl-1H-pyrazol-5-yl)-1,3,4-oxadiazol-2-yl)methanone], the AC50 under setting [1] lay in the range of 1 to 5 µM.

Consider `Cc1nc(C(C)(C)O)oc1C(=O)N1CCc2[nH]cnc2[C@@H]1c1nc2ccccc2s1` [Example 1470, (R)-(4-(benzo[d]thiazol-2-yl)-6,7-dihydro-1H-imidazo[4,5-c]pyridin-5(4H)-yl)(2-(2-hydroxypropan-2-yl)-4-methyloxazol-5-yl)methanone], for which the AC50 under setting [1] was more than 5 µM.

Consider `O=C(c1cnn2ccc(Br)cc12)N1CCc2[nH]cnc2C1c1nc2ccc(Cl)cc2[nH]1` (stereo not shown), for which, under setting [2], the AC50 lay within 1 to 5 µM.

Regarding `[2H]C([2H])([2H])OCc1cc(C(=O)N2CCc3[nH]cnc3C2c2nc3c(F)cccc3s2)n(C)n1` (stereo not shown), the AC50 under setting [2] is more than 5 µM.

As to `O=C(CCc1nccs1)N1CCc2[nH]cnc2[C@H]1c1ncc(Br)s1` [Example 2148], under setting [1], the AC50 was in the range of 1 to 5 µM.

Consider `Cc1ncoc1CC(=O)N1CCc2[nH]cnc2[C@H]1c1nc2ccccc2[nH]1` [(S)-1-(4-(1H-benzo[d]imidazol-2-yl)-6,7-dihydro-1H-imidazo[4,5-c]pyridin-5(4H)-yl)-2-(4-methyloxazol-5-yl)ethanone], for which the AC50 under setting [2] lay in the range of 1 to 5 µM.

Consider `O=C(CCc1nnc(Br)s1)N1CCc2[nH]cnc2[C@H]1c1nc2ccccc2s1` [Example 1089], for which, under setting [1], the AC50 was 0.5 to 1 µM.

On to `CC1(C)CC=C(c2ncc(C(=O)N3CCc4[nH]cnc4[C@H]3c3nc4ccccc4s3)s2)CC1` [Example 1351], for which the AC50 under setting [1] was 0.5 to 1 µM.

With `Cc1nc(C(=O)N2CCc3[nH]cnc3C2c2nc3c(F)cccc3s2)n(C)n1` (stereo not shown), the AC50 under setting [2] was 1 to 5 µM.

In the case of `O=C(c1cnn(CC(F)(F)F)c1)N1CCc2[nH]cnc2C1c1nc2ccccc2s1` (stereo not shown), under setting [2], the AC50 was more than 5 µM.

Regarding `CN(C)CCc1nc(C(F)(F)F)c(C(=O)N2CCCc3[nH]cnc3[C@@H]2c2nc3ccccc3s2)o1` (single isomer, unassigned) [Example 2126], the AC50 under setting [1] lay in the range of 1 to 5 µM.

Turning to `O=C(c1nnc(CCCN2CCOCC2)o1)N1CCc2[nH]cnc2C1c1nc2ccccc2s1` (stereo not shown), the AC50 under setting [2] was more than 5 µM.

With `O=C(c1ncc(Cl)s1)N1CCc2[nH]cnc2[C@@H]1c1nc2ccc(Br)cc2[nH]1` [Example 976, (R)-(4-(6-bromo-1H-benzo[d]imidazol-2-yl)-6,7-dihydro-1H-imidazo[4,5-c]pyridin-5(4H)-yl)(5-chlorothiazol-2-yl)methanone], the concentration at half-maximal activity (AC50) under setting [1] was more than 5 µM.

`O=C(Cc1ccc(F)cc1)N1CCc2[nH]cnc2[C@H]1c1nc2ccccc2[nH]1` [(S)-1-(4-(1H-benzo[d]imidazol-2-yl)-1,4,6,7-tetrahydro-5H-imidazo[4,5-c]pyridin-5-yl)-2-(4-fluorophenyl)ethan-1-one]: the AC50 under setting [2] was 1 to 5 µM.

On to `C[C@@H]1CN(C(=O)c2nnc(-c3ccc(F)cn3)o2)[C@H](c2nc3ccccc3s2)c2nc[nH]c21` [Example 1754, ((4S,7R)-4-(benzo[d]thiazol-2-yl)-7-methyl-6,7-dihydro-1H-imidazo[4,5-c]pyridin-5(4H)-yl)(5-(5-fluoropyridin-2-yl)-1,3,4-oxadiazol-2-yl)methanone], for which the AC50 under setting [1] was 0.5 to 1 µM.

`O=C(Cc1nncs1)N1CCc2[nH]cnc2C1c1nc2ccc(F)cc2s1` (stereo not shown): under setting [2], the AC50 was more than 5 µM.

For `O=C(c1cnn2ccccc12)N1CCc2[nH]cnc2[C@@H]1c1nc2c(Br)cccc2s1` [Example 1242, (R)-(4-(4-bromobenzo[d]thiazol-2-yl)-6,7-dihydro-1H-imidazo[4,5-c]pyridine-5(4H)-yl)(pyrazolo [1,5-a]pyridin-3-yl) methanone], the AC50 under setting [1] was more than 5 µM.

`Cc1nc(C)c(C(=O)N2CCc3[nH]cnc3[C@@H]2c2nc3ccccc3s2)o1` [Example 1164, (R)-(4-(benzo[d]thiazol-2-yl)-6,7-dihydro-1H-imidazo[4,5-c]pyridin-5(4H)-yl)(2,4-dimethyloxazol-5-yl)methanone]: under setting [1], the AC50 is more than 5 µM.

Turning to `CC(C)(O)c1nc(C(F)F)c(C(=O)N2CCc3[nH]cnc3C2c2nc3ccccc3[nH]2)o1` (stereo not shown), the AC50 entry (24 hrs with compound) is “E, E”.

The term AC50 denotes the concentration at which the activity in the assay is half-maximal.

The record behind these values is patent US20250171438A1 (Agios Pharmaceuticals, Inc., priority 2022, published 2025).
